Measurements reported in PMC6044684 (ACS Omega, 2016).

Molecular target: epidermal growth factor receptor (EGFR) (Homo sapiens, UniProt P00533)
Assay: SPR
Format: binding

Chain of epidermal growth factor receptor (EGFR) (P00533 25-1210): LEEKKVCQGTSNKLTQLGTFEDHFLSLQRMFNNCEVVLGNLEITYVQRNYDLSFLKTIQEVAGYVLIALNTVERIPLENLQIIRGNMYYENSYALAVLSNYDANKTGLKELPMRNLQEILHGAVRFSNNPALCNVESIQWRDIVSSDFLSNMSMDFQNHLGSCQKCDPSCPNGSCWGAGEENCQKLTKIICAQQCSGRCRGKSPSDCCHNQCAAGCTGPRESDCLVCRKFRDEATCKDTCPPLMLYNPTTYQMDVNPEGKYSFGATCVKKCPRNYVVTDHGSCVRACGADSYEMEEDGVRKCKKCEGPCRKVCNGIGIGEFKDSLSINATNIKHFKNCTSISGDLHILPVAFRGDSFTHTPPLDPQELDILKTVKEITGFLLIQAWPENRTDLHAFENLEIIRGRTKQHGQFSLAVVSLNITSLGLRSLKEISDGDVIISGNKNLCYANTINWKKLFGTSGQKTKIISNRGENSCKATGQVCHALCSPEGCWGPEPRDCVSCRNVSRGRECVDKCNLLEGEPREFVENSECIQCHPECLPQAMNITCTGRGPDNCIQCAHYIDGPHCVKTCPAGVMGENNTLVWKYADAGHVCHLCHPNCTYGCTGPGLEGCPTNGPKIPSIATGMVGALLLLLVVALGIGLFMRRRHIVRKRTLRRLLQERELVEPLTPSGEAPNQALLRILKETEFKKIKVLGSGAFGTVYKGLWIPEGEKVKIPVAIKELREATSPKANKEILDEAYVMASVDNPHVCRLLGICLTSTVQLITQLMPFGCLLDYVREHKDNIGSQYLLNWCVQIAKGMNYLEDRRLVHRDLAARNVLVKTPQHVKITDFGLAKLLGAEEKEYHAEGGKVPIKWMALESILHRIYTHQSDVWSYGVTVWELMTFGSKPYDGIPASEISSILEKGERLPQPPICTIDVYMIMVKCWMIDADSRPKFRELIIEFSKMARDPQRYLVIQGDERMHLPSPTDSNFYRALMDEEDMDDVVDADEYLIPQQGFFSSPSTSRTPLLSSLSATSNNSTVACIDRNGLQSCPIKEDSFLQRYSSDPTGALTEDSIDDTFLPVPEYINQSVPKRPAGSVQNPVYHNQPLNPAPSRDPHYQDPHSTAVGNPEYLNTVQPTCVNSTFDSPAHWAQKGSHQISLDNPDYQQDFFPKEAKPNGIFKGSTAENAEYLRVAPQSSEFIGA

SMILES: Clc1ccc(C2=NN(c3nc(C45CC6CC(CC(C6)C4)C5)cs3)C(c3ccccc3)C2)c(Cl)c1 (stereo not shown) [3e, 4-(adamantan-1-yl)-2-(3-(2,4-dichlorophenyl)-5-phenyl-4,5-dihydro-1H-pyrazol-1-yl)thiazole]
- Kd: 11.8 ± 2.4 µM
